Legend:
Format in all cases: in vivo
[1] = test system: Tetranychus urticae (two-spotted spider mite); assay: Tetranychus urticae bean leaf disc spray test; conditions: foliar, 192 h, bean leaf discs sprayed at 200 ppm, mixed ages, egg, larval and adult mortality 8 days later
Excerpt: Bean leaf discs on agar in 24-well microtiter plates were sprayed with test solutions at an application rate of 200 ppm. After drying, the leaf discs are infested with mite populations of mixed ages. 8 days later, discs are checked for egg mortality, larval mortality, and adult mortality. […]

[2] = test system: Plutella xylostella (diamond back moth); assay: Plutella xylostella L2 larvae test on artificial diet; conditions: 144 h, 200 ppm (concentration in well 18 ppm), 6 days, larval mortality and growth regulation
Experimental: (§1) 24-well microtiter plate (MTP) with artificial diet was treated with test solutions at an application rate of 200 ppm (concentration in well 18 ppm) by pipetting. After drying, the MTPs were infested with L2 larvae (7-12 per well). After an incubation period of 6 days, samples were checked for larval mortality and growth regulation.

[3] = test system: Heliothis virescens (tobacco budworm); assay: Heliothis virescens egg test on artificial diet; conditions: 96 h, 200 ppm (concentration in well 18 ppm), eggs 0-24 h old, 4 days, egg mortality, larval mortality, growth regulation
Experimental: Eggs (0-24 h old) were placed in 24-well microtiter plate on artificial diet and treated with test solutions at an application rate of 200 ppm (concentration in well 18 ppm) by pipetting. After an incubation period of 4 days, samples were checked for egg mortality, larval mortality, and growth regulation.

[4] = test system: Diabrotica balteata (corn root worm); assay: Diabrotica balteata L2 larvae test on artificial diet; conditions: 120 h, 200 ppm (concentration in well 18 ppm), 5 days, larval mortality and growth regulation
Experimental: as §1, with “A 24-well” for “24-well”, “(6-10” for “(7-12”, “5” for “6”
as §1, with “A 24-well” for “24-well”, “12.5” for “200”, “MTP's” for “MTPs”, “(6-10” for “(7-12”, “5” for “6”

[5] = test system: Spodoptera littoralis (Egyptian cotton leafworm); assay: Spodoptera littoralis cotton leaf disc spray test; conditions: foliar, 72 h, cotton leaf discs sprayed at 200 ppm, 5 L1 larvae, mortality, feeding behavior, growth regulation 3 days after treatment
Excerpt: Cotton leaf discs were placed on agar in a 24-well microtiter plate and sprayed with test solutions at an application rate of 200 ppm. After drying, the leaf discs were infested with 5 L1 larvae. The samples were checked for mortality, feeding behavior, and growth regulation 3 days after treatment (DAT).

Measured: pest or weed control at 200 ppm

Cc1cc(C2=CC(c3cc(Cl)cc(Cl)c3)(C(F)(F)F)OC2)ccc1C(=O)NCC(F)(F)F (centres unmarked) [Compound A3]
≥ 80%: all assays above

COc1ccc(CNC(=O)c2ccc(C3=CC(c4cc(Cl)cc(Cl)c4)(C(F)(F)F)OC3)cc2C)cc1 (centres unmarked) [Compound A10]
not listed: [4]
≥ 80%: all other assays above

Cc1csc(NC(=O)c2ccc(C3=CC(c4cc(Cl)cc(Cl)c4)(C(F)(F)F)OC3)cc2C)n1 (centres unmarked) [Compound A11]
not listed: [4]
≥ 80%: all other assays above

Cc1cc(C2=CC(c3cc(Cl)cc(Cl)c3)(C(F)(F)F)OC2)ccc1C(=O)NC1(C)CSC1 (centres unmarked) [Compound A12]
not listed: [4]
≥ 80%: all other assays above

Cc1cc(C2=CC(c3cc(Cl)cc(Cl)c3)(C(F)(F)F)OC2)ccc1C(=O)NC1C[S+]([O-])C1 (centres unmarked) [Compound A13]
≥ 80%: [1] | [3] | [5]

Cc1cc(C2=CC(c3cc(Cl)cc(Cl)c3)(C(F)(F)F)OC2)ccc1C(=O)NC1CCC1 (centres unmarked) [Compound A14]
≥ 80%: [1] | [3] | [5]

Cc1cc(C2=CC(c3cc(Cl)cc(Cl)c3)(C(F)(F)F)OC2)ccc1C(=O)NCc1nc2ccccc2[nH]1 (centres unmarked) [Compound A18]
not listed: [5]
≥ 80%: all other assays above

CCC(CO)NC(=O)c1ccc(C2=CC(c3cc(Cl)cc(Cl)c3)(C(F)(F)F)OC2)cc1C (centres unmarked) [Compound A28]
≥ 80%: [1] | [5]

Cc1cc(C2=CC(c3cc(Cl)cc(Cl)c3)(C(F)(F)F)OC2)ccc1C(=O)NCc1cccnc1 (centres unmarked) [Compound A35]
≥ 80%: all assays above

Cc1cc(C2=CC(c3cc(Cl)cc(Cl)c3)(C(F)(F)F)OC2)ccc1C(=O)NC(C)c1ccccc1 (centres unmarked) [Compound A38]
not listed: [4]
≥ 80%: all other assays above

Cc1cc(C2=CC(c3cc(Cl)cc(Cl)c3)(C(F)(F)F)OC2)ccc1C(=O)NC1CC(C)(C)N(C)C(C)(C)C1 (centres unmarked) [Compound A40]
≥ 80%: [1]

Cc1cc(C2=CC(c3cc(Cl)cc(Cl)c3)(C(F)(F)F)OC2)ccc1C(=O)NCc1cccc(Cl)c1 (centres unmarked) [Compound A43]
≥ 80%: [1] | [4] | [5]

CC(=O)NCCNC(=O)c1ccc(C2=CC(c3cc(Cl)cc(Cl)c3)(C(F)(F)F)OC2)cc1C (centres unmarked) [Compound A45]
≥ 80%: [1]

Cc1cc(C2=CC(c3cc(Cl)cc(Cl)c3)(C(F)(F)F)OC2)ccc1C(=O)NCc1ccc(-n2cccn2)cc1 (centres unmarked) [Compound A46]
not listed: [5]
≥ 80%: all other assays above

Cc1cc(C2=CC(c3cc(Cl)cc(Cl)c3)(C(F)(F)F)OC2)ccc1C(=O)NCc1ccc(Cl)nc1 (centres unmarked) [Compound A52]
not listed: [4]
≥ 80%: all other assays above

Cc1cc(C2=CC(c3cc(Cl)cc(Cl)c3)(C(F)(F)F)OC2)ccc1C(=O)Nc1ccccc1Cl (centres unmarked) [Compound A56]
not listed: [5]
≥ 80%: all other assays above

COc1ccc(NC(=O)c2ccc(C3=CC(c4cc(Cl)cc(Cl)c4)(C(F)(F)F)OC3)cc2C)c(OC)c1 (centres unmarked) [Compound A58]
not listed: [5]
≥ 80%: all other assays above

CSc1ccccc1NC(=O)c1ccc(C2=CC(c3cc(Cl)cc(Cl)c3)(C(F)(F)F)OC2)cc1C (centres unmarked) [Compound A63]
≥ 80%: [1] | [2] | [4]

Cc1cc(C2=CC(c3cc(Cl)cc(Cl)c3)(C(F)(F)F)OC2)ccc1C(=O)Nc1ccc2ncsc2c1 (centres unmarked) [Compound A64]
not listed: [1]
≥ 80%: all other assays above

O=C(NCc1ccccc1)c1ccc(C2=CC(c3cc(Cl)cc(Cl)c3)(C(F)(F)F)OC2)nc1 (centres unmarked) [Compound B9]
≥ 80%: [1] | [2]

Cc1nc(C2=CC(c3cc(Cl)cc(Cl)c3)(C(F)(F)F)OC2)ccc1C(=O)NCC(F)(F)F (centres unmarked) [Compound C1]
not listed: [1]
≥ 80%: all other assays above

CCCCNC(=O)c1ccc(C2=CC(c3cc(Cl)cc(Cl)c3)(C(F)(F)F)OC2)nc1C (centres unmarked) [Compound C3]
not listed: [1]
≥ 80%: all other assays above

Cc1nc(C2=CC(c3cc(Cl)cc(Cl)c3)(C(F)(F)F)OC2)ccc1C(=O)NCc1ccccc1 (centres unmarked) [Compound C9]
not listed: [1]
≥ 80%: all other assays above

Cc1nc(C2=CC(c3cc(Cl)cc(Cl)c3)(C(F)(F)F)OC2)ccc1C(=O)NCc1ccccc1F (centres unmarked) [Compound C10]
not listed: [1]
≥ 80%: all other assays above

Cc1nc(C2=CC(c3cc(Cl)cc(Cl)c3)(C(F)(F)F)OC2)ccc1C(=O)NC(C)c1ccccc1 (centres unmarked) [Compound C11]
not listed: [1]
≥ 80%: all other assays above

COc1ccc(CNC(=O)c2ccc(C3=CC(c4cc(Cl)cc(Cl)c4)(C(F)(F)F)OC3)nc2C)cc1 (centres unmarked) [Compound C12]
not listed: [1]
≥ 80%: all other assays above

Cc1cc(C2=CC(c3cc(Cl)cc(Cl)c3)(C(F)(F)F)OC2=O)ccc1C(=O)NC1(C)CSC1 (centres unmarked) [Compound E16]
≥ 80%: [1]

O=C(NC1CS(=O)(=O)C1)c1ccc(C2=CC(c3cc(Cl)cc(Cl)c3)(C(F)(F)F)OC2)nc1Cl (centres unmarked) [Compound F2, 2-Chloro-6-[5-(3,5-dichloro-phenyl)-5-trifluoromethyl-2,5-dihydro-furan-3-yl]-N-(1,1-dioxo-1lambda*6*-thietan-3-yl)-nicotinamide]
not listed: [4]
≥ 80%: all other assays above

N#Cc1cc(C2=CC(c3cc(Cl)cc(Cl)c3)(C(F)(F)F)OC2)ccc1-n1cncn1 (centres unmarked) [Compound G1, 5-[5-(3,5-Dichloro-phenyl)-5-trifluoromethyl-2,5-dihydro-furan-3-yl]-2-[1,2,4]triazol-1-yl-benzonitrile]
not listed: [1]
≥ 80%: all other assays above
